From patent publication US4477664A, “Novel 1-(4-piperidiniobenzyl)-2,3-dioxopiperazine derivatives or acid addition salts thereof” (Toyama Chemical Co., Ltd., priority 1979, dated 1984)
In brackets after ≈: the same amount, converted by molar mass.

Columns and labels:
[1] = system: HeLa S3 cells; experiment: MIC value against HeLa S3 cells (microplate method); format: cell-based; conditions: Homo sapiens, 96 h, 2×10^4 cells/ml, 4 days, Giemsa staining
From the text: (§1) a. MIC value against HeLa S3 cells and Ehrlich cells (microplate method) Number of cells: 2×10^4 cells/ml Culture medium: Eagle's MEM+20% calf embryonic serum Culture time: 4 days Judgement: Giemsa staining

[2] = system: Ehrlich cells; experiment: MIC value against Ehrlich cells (microplate method); format: cell-based; conditions: 96 h, 2×10^4 cells/ml, 4 days, Giemsa staining
From the text: as §1

[3] = system: Ehrlich ascites carcinoma cells; experiment: Effect on Ehrlich carcinoma (i): intraperitoneal inoculation, mean survival days; format: in vivo, ICR-strain mice; conditions: Mus musculus, ip, 168 h, once a day for 7 days, read-out: T/C (mean survival days)
Method: (i) Ehrlich ascites carcinoma cells (1×10^6 cells/head) were inoculated intraperitoneally into ICR-strain mice (female, 6 to 7 weeks old, each group consisting of 5 or 4 mice), and after 24 hours, the […] The effect thereof was judged from the mean survival days.
The test drugs were used in the form of a solution or suspension in a saline solution or a 0.3% carboxymethyl cellulose-containing saline solution. [formula]

[4] = system: Sarcoma 180 ascites cells; experiment: Effect on Sarcoma 180 carcinoma: intraperitoneal inoculation, mean survival days; format: in vivo, ICR-strain mice; conditions: 200 mg/kg, once a day for 7 days
Method: Sarcoma 180 ascites cells (1×10^6 cells/head) were inocualted intraperitoneally into ICR-strain mice (female, 6 weeks old, each group consisting of 4 or 5 mice), and after 24 hours, the intraperitoneal administration of a test drug was started, and effected once a day for 7 days. The effect thereof was judged from the mean survival days. The test drug was used in the form of a solution or suspension in a saline solution or a 0.3% carboxymethyl cellulose-containing saline solution. [formula]

[5] = Acute toxicity; conditions: mouse, in vivo, ip
From the text: The test drugs were used in the form of a solution or suspension in a saline solution or a 0.3% carboxymethyl cellulose-containing saline solution.

[6] = intraperitoneal, once, male mice, observed for 7 days

Row | MIC [1] | MIC [2] | SMILES | LD50 at 168 h [5, 6] | other results
1 | 0.78 µg/mL (≈ 2.08 µM) | 0.39 µg/mL (≈ 1.04 µM) | O=C1C(=O)N(c2cnccn2)CCN1Cc1ccc(Nc2ncccn2)cc1 [Compound 8] |  | 
2 | 1.56 to 3.13 µg/mL (≈ 4.01 to 8.04 µM) | 6.25 µg/mL (≈ 16 µM) | O=C1C(=O)N(Cc2cnccn2)CCN1Cc1ccc(Nc2ncccn2)cc1 [Compound 9] |  | 
3 | 1.56 to 3.13 µg/mL (≈ 3.87 to 7.76 µM) | 12.5 µg/mL (≈ 31 µM) | Nc1cccc(CN2CCN(Cc3ccc(Nc4ncccn4)cc3)C(=O)C2=O)n1 [Compound 10] |  | 
4 | 1.56 µg/mL (≈ 3.96 µM) | 1.56 µg/mL (≈ 3.96 µM) | O=C1C(=O)N(CC2CCCCC2)CCN1Cc1ccc(Nc2ncccn2)cc1 [Compound 11] |  | 
5 | 1.56 µg/mL (≈ 3.7 µM) | 1.56 µg/mL (≈ 3.7 µM) | O=C1C(=O)N(Cc2ccc(Nc3ncccn3)cc2)CCN1Cc1ccc(Cl)cc1 [Compound 16] |  | 
6 | 6.25 µg/mL (≈ 14 µM) | 6.25 µg/mL (≈ 14 µM) | COC(=O)c1ccc(CN2CCN(Cc3ccc(Nc4ncccn4)cc3)C(=O)C2=O)cc1 [Compound 17] |  | 
7 | 3.13 µg/mL (≈ 7.8 µM) | 6.25 µg/mL (≈ 15.6 µM) | CC(c1ccccc1)N1CCN(Cc2ccc(Nc3ncccn3)cc2)C(=O)C1=O (centres unmarked) [Compound 18] |  | 
8 | 1.56 µg/mL (≈ 4.09 µM) | 1.56 µg/mL (≈ 4.09 µM) | CCCCCCN1CCN(Cc2ccc(Nc3cnccn3)cc2)C(=O)C1=O [Compound 21] |  | 
9 | 3.13 to 6.25 µg/mL (≈ 7.8 to 15.6 µM) | 6.25 µg/mL (≈ 15.6 µM) | CC(c1ccc(Nc2ncccn2)cc1)N1CCN(Cc2ccccc2)C(=O)C1=O (centres unmarked) [Compound 22] |  | 

Continued, molecule first:

Row | SMILES | MIC [1] | MIC [2] | LD50 at 168 h [5, 6] | other results
10 | CCCCCCN1CCN(Cc2ccc(Nc3ccccn3)cc2)C(=O)C1=O [Compound 1] | 0.2 µg/mL (≈ 0.526 µM) | 0.2 µg/mL (≈ 0.526 µM) |  | response vs control in vivo at 200 mg/kg ([3]; 200 mg/kg): > 221%; T/C (mean survival days) [4]: > 151.6%; Survival Ratio in Days Shown in Parenthesis ([4]; 35 days): 2/4; LD50 at 168 h [5]: > 500 mg/kg
11 | O=C1C(=O)N(Cc2ccc(Nc3ccccn3)cc2)CCN1Cc1ccccc1 [Compound 2] | 0.39 to 0.78 µg/mL (≈ 1.01 to 2.02 µM) | 0.39 to 0.78 µg/mL (≈ 1.01 to 2.02 µM) | > 200 mg/kg | response vs control in vivo at 100 mg/kg [3]: > 192%
12 | O=C1C(=O)N(Cc2ccc(Nc3ccc([N+](=O)[O-])cn3)cc2)CCN1Cc1ccccc1 [Compound 3] | 3.13 to 6.25 µg/mL (≈ 7.25 to 14.5 µM) | 6.25 µg/mL (≈ 14.5 µM) |  | 
13 | CCCCCCN1CCN(Cc2ccc(Nc3ccncc3)cc2)C(=O)C1=O [Compound 5] | 3.13 µg/mL (≈ 8.23 µM) | 3.13 µg/mL (≈ 8.23 µM) |  | 
14 | O=C1C(=O)N(c2ccccc2)CCN1Cc1ccc(Nc2ncccn2)cc1 [Compound 12] | 0.78 µg/mL (≈ 2.09 µM) | 0.78 µg/mL (≈ 2.09 µM) | > 500 mg/kg | 
15 | O=C1C(=O)N(Cc2ccc(Nc3ncccn3)cc2)CCN1CCc1ccccc1 [Compound 14] | 0.39 µg/mL (≈ 0.971 µM) | 0.39 µg/mL (≈ 0.971 µM) | > 500 mg/kg | response vs control in vivo at 100 mg/kg [3]: > 179%
16 | O=C1C(=O)N(Cc2ccc(Nc3ncccn3)cc2)CCN1CCCc1ccccc1 [Compound 15] | 1.56 µg/mL (≈ 3.75 µM) | 1.56 µg/mL (≈ 3.75 µM) | > 500 mg/kg | 
17 | CCCCCCN1CCN(Cc2ccc(Nc3ccncn3)cc2)C(=O)C1=O [Compound 19] | 1.56 µg/mL (≈ 4.09 µM) | 1.56 µg/mL (≈ 4.09 µM) | > 500 mg/kg | 
18 | O=C1C(=O)N(Cc2ccc(Nc3ccncn3)cc2)CCN1Cc1ccccc1 [Compound 20] | 0.78 µg/mL (≈ 2.01 µM) | 1.56 µg/mL (≈ 4.03 µM) | > 500 mg/kg | 
19 | O=C1C(=O)N(Cc2ccc(Nc3ncccn3)cc2)CCN1Cc1ccc(Nc2ncccn2)cc1 [Compound 23] | 6.25 µg/mL (≈ 13 µM) | 6.25 µg/mL (≈ 13 µM) |  | response vs control in vivo at 100 mg/kg [3]: 159%
20 | O=C1C(=O)N(Cc2ccc(Nc3ccccn3)cc2)CCN1Cc1ccc(Nc2ccccn2)cc1 [Compound 24] | 3.13 µg/mL (≈ 6.54 µM) | 3.13 µg/mL (≈ 6.54 µM) |  | 
